From patent US20250162990A1, “COMPOUNDS AND METHODS FOR INHIBITING CANCERS OVER-EXPRESSING REPLICATION FACTOR C 40” (RAADYSAN BIOTECH, INC., priority 2022, published 2025)

How the values were obtained:
[1] = tested on: MCF10A cells (non-cancerous breast epithelial cells); test: Cell viability, ApoLive Glo Multiplex Assay (live-cell protease fluorescence); assay type: cell-based; details: 24 hours; for effect on the cell viability of MCF10A cells at lower drug concentrations: concentrations of up to 10 μM; for effect on the cell viability of MCF10A cells: 0.1 nM to 100 μM
Method: (§1) Non-cancerous breast epithelial cells (MCF10A) and TNBC cell line (MDA-MB-231; mesenchymal; originating from a person) were purchased from the ATCC (American Type Culture Collection, Manassas, Virginia). The effect of the 7 SMEs on cell viability and apoptosis, in MDA-MB-231 and MCF10A cell lines, respectively, was determined as follows. The MCF10A and MDA-MB-231 cells were incubated with different concentrations (100 μM, 10 μM, 1 μM, 0.1 μM, 10 nM, 1 nM, 0.1 nM, and DMSO only) of the 7 SMEs for 24 hours at 37° C. Cell viability and apoptosis was estimated using the ApoLive Glo Multiplex Assay kit 29 (Promega, Madison, WI). Live-cell protease fluorescence (cell viability) was measured at 400 Ex/505 Em and caspase3/7 activation (apoptosis) was measured by luminescence on Envision plate reader.

[2] = tested on: MDA-MB-231 cells (TNBC cell line); test: as above; assay type: cell-based; details: for EC50: Homo sapiens, MDA-MB-231, 24 hours at 37° C., read-out: EC50, inhibition of TNBC cell viability; for inhibited TNBC cell viability: MDA-MB-231, 24 hours, dose-dependent (up to 100 μM)
Method: as §1

MDA-MB-231 cells = test: Apoptosis, caspase3/7 activation, ApoLive Glo Multiplex Assay; assay type: cell-based; details: 24 hr, caspase3/7 luminescence
Method: as §1

RFC40 in HEK293 cells = target: T1, RFC40 in HEK293 cells (Homo sapiens, UniProt P35250); test: RFC40 protein expression by Western blot; assay type: cell-based; details: 2 different concentrations, 24 hr
T1 construct: endogenous in cells; host or cells: HEK293
Method: HEK293 cells were plated in 6-well plates and grown until they were 80% confluent. The cells were then treated with RDY00012, in a dose-dependent manner [100 μM, 10 μM, 1 μM, 0.1 μM, 0 μM (DMSO only)], for 24 hours at 37° C. Samples were run 9% SDS-PAGE and Western blot analysis was performed using rabbit polyclonal anti-RFC40 (1:100, Abcepta) and mouse monoclonal anti-β-Actin (1:500, Santa Cruz Tech) primary antibodies, respectively. Following incubation with anti-rabbit, and anti-mouse secondary antibodies, respectively, specific proteins were detected by chemiluminescence.

[3] = target: T2, Recombinant human RFC40 protein (Homo sapiens, UniProt P35250); test: RFC40 ATPase enzyme activity, ADP-Glo Max Assay; assay type: biochemical; details: RFC40 250 nM, ATP 25 μM; for inhibition at 0.0001 µM: 0.1 nM compound, after 90 min pre-incubation, read-out: time-dependent increase in the inhibition of the RFC40 enzyme activity; for inhibition of RFC40 enzyme activity after 30 min of incubation: 30 min pre-incubation at 37° C.
T2 construct: purchased Origene Technologies (Rockville, MD)
Method: FIGS. 15A-B are graphs of RFC40 ATPase activity inhibition. Human recombinant RFC40 (250 nM) was pre-incubated, individually, with different concentrations of compounds labeled RDY00209 and RDY00120 at 37° C. ATP (25 μM) was then added to the mixture and the ATPase enzyme activity of RFC40 was estimated using the ADP-Glo Max Assay. FIG. 15A presents RFC40 enzyme activity after a 30 min incubation with each compound, and FIG. 15B presents RFC40 enzyme activity after a 90 min incubation with each compound.
Method: Biochemical assays were performed to determine the effects of the 2 SMEs RDY00209 and RDY00120 on the enzymatic activity of RFC40. Recombinant human RFC40 protein was purchased from Origene Technologies (Rockville, MD). ATPase enzyme activity of RFC40 was estimated using the ADP-Glo Max Assay kit^32 (Promega, Madison, WI), as per the manufacturer's instructions. RFC40 (250 nM) was pre-incubated, individually, with different concentrations (100 μM, 0.1 μM, 0.1 nM and 0) of RDY00209 and RDY00120 for 30 min and 90 min, respectively, at 37° C. ATP (25 μM) was then added to the mixture and incubated for another 3 hours at 37° C. Luminescence was read on an Envision plate reader.

T2 sequence (P35250 whole entry): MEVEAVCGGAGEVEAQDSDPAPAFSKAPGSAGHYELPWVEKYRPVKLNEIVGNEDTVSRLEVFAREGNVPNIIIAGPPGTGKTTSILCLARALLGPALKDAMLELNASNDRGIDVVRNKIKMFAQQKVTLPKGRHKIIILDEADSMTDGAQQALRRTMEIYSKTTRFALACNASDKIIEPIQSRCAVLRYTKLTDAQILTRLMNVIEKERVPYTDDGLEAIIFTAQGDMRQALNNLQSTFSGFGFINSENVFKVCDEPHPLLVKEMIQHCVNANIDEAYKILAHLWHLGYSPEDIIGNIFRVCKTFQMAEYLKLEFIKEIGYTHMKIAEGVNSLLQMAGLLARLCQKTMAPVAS
T1 sequence (P35250 whole entry): as above

| EC50 [2] [µM] | expression of RFC40 (RFC40 in HEK293 cells) | inhibition at 0.0001 µM [3] [%] | Compound | effect on the cell viability of MCF10A cells at lower drug concentrations [1] | inhibited TNBC cell viability [2] [%] | induction of apoptosis in MDA-MB-231 cells (MDA-MB-231 cells) | effect on the cell viability of MCF10A cells [1] | inhibition of RFC40 enzyme activity after 30 min of incubation [3] |
| --- | --- | --- | --- | --- | --- | --- | --- | --- |
| 7.81 | downregulated the expression of RFC40 |  | O=C(O)c1ccc(OCc2ccc3nsnc3c2)cc1 [RDY00012] | did not affect | 95 | did not induce apoptosis |  |  |
| 5.42 |  |  | COc1cccc(-c2ccc(=O)n(CCCC(=O)Nc3nnc(C)s3)n2)c1 [RDY00034] | did not affect | 95 | did not induce apoptosis |  |  |
| 7.14 |  | 36.5 | O=C(O)c1csc(S(=O)(=O)Nc2cccc3c2CCCC3)c1 [RDY00120] |  | 95 | did not induce apoptosis | no effect | inhibited the enzyme activity in a dose-dependent manner |
| 6.92 |  | 22.1 | O=C(O)CNC(=O)CCn1ccc2ccc(Cl)cc21 [RDY00209] |  | 95 | did not induce apoptosis | no effect | inhibited the enzyme activity in a dose-dependent manner |
